From patent publication US20240270821A1, “GIP/GLP1/GCG TRI-RECEPTOR AGONISTS AND USES THEREOF” (priority 2023, published 2024)
Read-outs that look alike come from different tables or passages of the source. Marks after values point to notes of the source that are not given here. Starred links: 1 amine or outer side, 2 acyl side, 3 side chain; linkers in the order of their positions; H or OH if unused. Non-standard residues stand in square brackets, D forms with d. Groups on a side chain read outwards from the residue. No end group written: not given here. *: point of attachment. C20 diacid = O=C(O)CCCCCCCCCCCCCCCCCCC(=O)*; C18 diacid = O=C(O)CCCCCCCCCCCCCCCCC(=O)*; γGlu = O=C(O)[C@H](CCC(=O)[*:2])N[*:1]; 4Pal = N[C@@H](Cc1ccncc1)C(=O)O; αMeL = CC(C)C[C@](C)(N)C(=O)O; Orn = NCCC[C@H](N)C(=O)O; AEEA = NCCOCCOCC(=O)O; Aib = CC(C)(N)C(=O)O

Columns and labels:
[1] = molecular target: hGcgR (Homo sapiens, UniProt P47871); test: Functional cAMP activation in the presence of 0.1% casein (no HSA); format: cell-based;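 note: intracellular cAMP rise after 30 min at 37 °C, read by HTRF against a cAMP standard curve, scaled from buffer only (0%) to maximal control ligand response (100%)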
Sequence of hGcgR (P47871 26-477): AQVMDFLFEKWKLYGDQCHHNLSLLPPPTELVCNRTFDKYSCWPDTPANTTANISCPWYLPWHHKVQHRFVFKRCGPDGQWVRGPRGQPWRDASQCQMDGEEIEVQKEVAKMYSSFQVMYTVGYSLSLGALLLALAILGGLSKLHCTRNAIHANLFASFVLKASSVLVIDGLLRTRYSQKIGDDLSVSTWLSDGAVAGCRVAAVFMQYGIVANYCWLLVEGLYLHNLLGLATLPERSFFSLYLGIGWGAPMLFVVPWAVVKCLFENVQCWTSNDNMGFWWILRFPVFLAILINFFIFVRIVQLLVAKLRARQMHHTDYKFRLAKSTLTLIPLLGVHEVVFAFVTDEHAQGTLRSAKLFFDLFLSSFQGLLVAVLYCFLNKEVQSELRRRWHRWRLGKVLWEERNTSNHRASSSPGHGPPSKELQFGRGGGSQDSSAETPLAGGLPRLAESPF

[2] = molecular target: T1, hGIPR (Homo sapiens, UniProt P48546); test: as above; format: cell-based;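 note: intracellular cAMP rise after 30 min at 37 °C read by HTRF against a standard curve, scaled between buffer alone (0%) and top control ligand concentration (100%), four-parameter fit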
T1 sequence (P48546 22-466): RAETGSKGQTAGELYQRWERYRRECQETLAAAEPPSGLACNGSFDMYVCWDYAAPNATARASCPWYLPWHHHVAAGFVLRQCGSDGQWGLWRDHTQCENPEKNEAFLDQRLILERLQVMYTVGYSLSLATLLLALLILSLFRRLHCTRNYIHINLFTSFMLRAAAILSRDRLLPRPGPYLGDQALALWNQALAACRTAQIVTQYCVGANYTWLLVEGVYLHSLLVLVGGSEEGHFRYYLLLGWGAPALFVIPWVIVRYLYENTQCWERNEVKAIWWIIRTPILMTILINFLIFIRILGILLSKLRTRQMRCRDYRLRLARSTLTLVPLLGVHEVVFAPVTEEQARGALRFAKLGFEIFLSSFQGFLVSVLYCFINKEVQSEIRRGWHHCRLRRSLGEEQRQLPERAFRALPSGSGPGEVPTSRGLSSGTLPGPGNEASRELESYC

[3] = molecular target: T2, hGLP-1R (Homo sapiens, UniProt P43220); test: as above; format: cell-based;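 note: intracellular cAMP rise after 30 min at 37 °C read by HTRF, normalized between buffer only (0%) and maximal control ligand (100%), four-parameter variable-slope fit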
T2 sequence (P43220 24-463): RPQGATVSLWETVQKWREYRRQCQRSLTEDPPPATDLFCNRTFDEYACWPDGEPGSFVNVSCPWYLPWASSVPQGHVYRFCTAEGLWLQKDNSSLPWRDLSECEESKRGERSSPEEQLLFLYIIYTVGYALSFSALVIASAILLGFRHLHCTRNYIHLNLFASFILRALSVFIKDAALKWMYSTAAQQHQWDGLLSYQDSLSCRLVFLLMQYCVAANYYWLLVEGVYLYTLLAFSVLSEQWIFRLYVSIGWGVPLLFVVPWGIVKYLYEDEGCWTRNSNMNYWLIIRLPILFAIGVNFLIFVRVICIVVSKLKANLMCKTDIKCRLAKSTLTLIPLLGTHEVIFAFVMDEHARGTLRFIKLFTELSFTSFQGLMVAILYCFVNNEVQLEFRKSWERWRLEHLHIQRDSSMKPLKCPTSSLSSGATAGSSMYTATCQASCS

[4] = molecular target: T2, hGLP-1R; test: Functional cAMP activity in the presence of 1% HSA; format: cell-based
[5] = Body weight in diet-induced obese C57BL/6 mice; format: in vivo; conditions: 10 nmol/kg SC Q3D, 14 days, percent of starting weight, DIO mice, mean ± SEM n=5
Method: To investigate the effect of the polypeptides as described herein on weight loss, exemplary polypeptides are dosed to C57BL/6 diet-induced obese (DIO) mice. Specifically, DIO male C57BL/6 mice (Taconic, Germantown, NY) maintained on a calorie-rich diet are used in the following studies. Mice are individually housed in a temperature-controlled (24° C.) facility with 12-hour light/dark cycle (lights on 22:00) and free access to food (TD95217) and water. After a minimum of 2 weeks acclimation to the facility, the mice are randomized according to their body weight, so each experimental group of animals would have similar starting body weight. The body weights range from 41 to 50 g. All groups contain 5 mice. […] Treatments are administered by subcutaneous (SC) injection (10 mL/kg) to ad libitum fed DIO mice 30 to 90 minutes prior to the onset of the dark cycle either once daily (QD) or once every 3 days (Q3D) for 9-16 days. Body weight and food intake are measured daily throughout the study. Body weight is presented as percent of the starting weight. […] Data are presented as mean±SEM of 5 animals per group in Table 7 below. Statistical analysis is performed using repeated measures ANOVA, followed by Dunnett's method comparison test.

[6] = molecular target: T1, hGIPR; test: Functional cAMP activity in the presence of 1% HSA; format: cell-based
[7] = molecular target: human GcgR (Homo sapiens, UniProt P47871); test: Functional cAMP activity in the presence of 1% HSA; format: cell-based
Sequence of human GcgR (P47871 26-477): as the sequence (P47871 26-477) above

[8] = molecular target: human GLP1-R (Homo sapiens, UniProt P43220); test: GLP1-R internalization assay in HEK293 cells; format: cell-based; conditions: for Internalization % TOP: normalized to maximum concentration of GLP-1 (100%)
Sequence of human GLP1-R (P43220 24-463): as the sequence (P43220 24-463) above

[9] = test system: Intestinal organoid from Göttingen minipig jejunum tissue, 2D monolayer; test: Cell based in vitro permeability (Papp) assay; format: in vitro ADME
Summary of the method: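 2D monolayers derived from Göttingen minipig jejunal organoids on transwell inserts. Basal samples collected at 20 min in the presence of C10. Peptide in apical and basal compartments quantified by LC/MS to give Papp.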

[10] = in the presence of 0.1% casein (no HSA), geometric mean, read-out: Relative cAMP EC50, hGcgR
[11] = in the presence of 0.1% casein (no HSA), geometric mean, read-out: Relative cAMP EC50, hGIPR
[12] = in the presence of 0.1% casein (no HSA), geometric mean, read-out: Relative cAMP EC50, hGLP-1R
[13] = read-out: cAMP Rel EC50, hGLP-1R
[14] = HEK293 cells expressing SNAP-GLP-1R, read-out: GLP1R Internalization EC50

Compound | EC50 [1, 10] [nM] | EC50 [2, 11] [nM] | EC50 [3, 12] [nM] | EC50 [4, 13] [nM] | Body weight (%) [5] | EC50 ([6]; read-out: cAMP Rel EC50, hGIPR) [nM] | EC50 ([7]; read-out: cAMP Rel EC50, hGcgR) [nM] | EC50 [8, 14] [nM] | Internalization % TOP [8] [%] | Relative Papp (Compared to internal standard) [9] | EC50 [1] [nM] | EC50 [2] [nM] | EC50 [3] [nM] | EC50 [4] [nM] | EC50 [6] [nM] | EC50 [7] [nM] | EC50 [8] [nM]
H-Y[Aib]QGTFTSDFS[Orn][αMeL]LDKK([AEEA-γGlu-C18 diacid])AQ[Aib]AFIEWLLEGGHSSGAPPPEGS-NH2 [Example 126] | 6.81 | 0.264 | 3.97 | 838 | 95.68 +/− 0.90% | 40.3 | 1120 | 63.2 | 38.8 |  |  |  |  |  |  |  | 
Y[Aib]QGTFTSDFS[Orn][αMeL]LDKK([AEEA-γGlu-C18 diacid])AQ[Aib]AFIEYLLEGGPSSGAPPPGGS-NH2 [Example 62] | 3.96 | 0.146 | 2.72 | 299 | 88.05 +/− 1.08*** % | 31.2 | 396 | 40.3 | 44.9 | 0.03 |  |  |  |  |  |  | 
H-Y[Aib]QGTFTSDFSK[αMeL]LDKK([AEEA-γGlu-C20 diacid])AQQAFIEYLLA[Aib]GPSSGAPPPSEG-NH2 [Example 30] |  |  |  |  | 90.12 +/− 0.30** % |  |  |  | 72.8 |  | 5.22 | 0.247 | 3.18 | 806 | 72.9 | 969 | 70.4
H-Y[Aib]QGTFTSDFSK[αMeL]LDKK([AEEA-γGlu-C20 diacid])AQ[Aib]AFIEWLLAGGPSSGEPPPSGE-NH2 [Example 21] | 12.4 | 0.218 | 2.7 | 324 | 83.70 +/− 0.86**** % | 29.1 | 1510 | 87.6 | 72.5 |  |  |  |  |  |  |  | 
H-Y[Aib]QGTFTSDFS[Orn][αMeL]LDKK([AEEA-γGlu-C18 diacid])AQ[Aib]AFIEWLLEGGESSGAPPPEGS-NH2 [Example 125] | 3.97 | 0.503 | 4.12 | 1050 | 97.90 +/− 0.32% | 67.8 | 901 | 86.4 | 42.6 |  |  |  |  |  |  |  | 
H-Y[Aib]QGTFTSDFS[Orn][αMeL]LDKK([AEEA-AEEA-γGlu-C18 diacid])AQ[Aib]AFIEYLLE[Aib]GPSSGAPPPSGS-NH2 [Example 75] | 4.51 | 0.0578 | 4.4 | 878 | 96.28 +/− 1.51% | 16.8 | 1040 | 61.8 | 51.9 |  |  |  |  |  |  |  | 
Y[Aib]QGTFTSDFS[Orn][αMeL]LDKK([AEEA-γGlu-C18 diacid])AQ[Aib]AFIEYLLAGGPSSGEPPPEGE-NH2 [Example 98] | 6.91 | 0.179 | 4.35 | 660 | 90.78 +/− 1.26* % | 33.8 | 867 | 56 | 49.3 |  |  |  |  |  |  |  | 
H-Y[Aib]QGTFTSDYSI[αMeL]LDKQAAK([AEEA-AEEA-γGlu-C20 diacid])QFVEWLIA[Aib]GPSSGEPPPAEG-NH2 [Example 334] | 6.77 | 0.223 | 0.707 | 171 | 84.78 +/− 2.74**** % | 72.1 | 2070 | 28.3 | 96.8 |  |  |  |  |  |  |  | 
H-Y[Aib]QGTFTSDFSK[αMeL]LDKK([AEEA-γGlu-C18 diacid])AQ[Aib]AFIEYLLAGGPSSGEPPPSGE-NH2 [Example 23] | 5.13 | 0.178 | 2.98 | 308 | 80.86 +/− 1.25**** % | 25.5 | 573 | 51.5 | 67.2 |  |  |  |  |  |  |  | 
CC[C@H](C)[C@H](NC(=O)[C@H](Cc1ccccc1)NC(=O)[C@H](C)NC(=O)C(C)(C)NC(=O)[C@H](CCC(N)=O)NC(=O)[C@H](C)NC(=O)[C@H](CCCCNC(=O)COCCOCCNC(=O)CC[C@H](NC(=O)CCCCCCCCCCCCCCCCCCC(=O)O)C(=O)O)NC(=O)[C@H](CCCCN)NC(=O)[C@H](CC(=O)O)NC(=O)[C@H](CC(C)C)NC(=O)[C@](C)(CC(C)C)NC(=O)[C@H](CCCN)NC(=O)[C@H](CO)NC(=O)[C@H](Cc1ccccc1)NC(=O)[C@H](CC(=O)O)NC(=O)[C@H](CO)NC(=O)[C@@H](NC(=O)[C@H](Cc1ccccc1)NC(=O)[C@@H](NC(=O)CNC(=O)[C@H](CCC(N)=O)NC(=O)C(C)(C)NC(=O)[C@@H](N)Cc1ccc(O)cc1)[C@@H](C)O)[C@@H](C)O)C(=O)N[C@@H](CCC(=O)O)C(=O)N[C@@H](Cc1ccc(O)cc1)C(=O)N[C@@H](CC(C)C)C(=O)N[C@@H](CC(C)C)C(=O)N[C@@H](C)C(=O)NCC(=O)NCC(=O)N1CCC[C@H]1C(=O)N[C@@H](CO)C(=O)N[C@@H](CO)C(=O)NCC(=O)N[C@@H](CCC(=O)O)C(=O)N1CCC[C@H]1C(=O)N1CCC[C@H]1C(=O)N1CCC[C@H]1C(=O)N[C@@H](CO)C(=O)N[C@@H](CCC(=O)O)C(=O)NCC(N)=O [Example 29] | 11.1 | 0.35 | 3.56 | 493 | 75.96 +/− 3.77**** % | 70.1 | 1350 | 129 | 57 |  |  |  |  |  |  |  | 
H-Y[Aib]QGTFTSD[4Pal]SR[αMeL]LDKK([AEEA-γGlu-C18 diacid])AQ[Aib]AFIEYLLE[Aib]GESSGAPPPSGS-NH2 [Example 132] | 2.63 | 0.21 | 5.72 | 823 | 98.66 +/− 0.47% | 25.9 | 632 | 72.7 | 67.2 |  |  |  |  |  |  |  | 
H-Y[Aib]QGTFTSDFS[Orn][αMeL]LDKK([AEEA-γGlu-C18 diacid])AQ[Aib]AFIEYLLAGGPSSGAPPPEGS-NH2 [Example 93] | 7.16 | 0.162 | 2.63 | 397 | 86.64 +/− 1.94**** % | 27.9 | 1390 | 30.4 | 50.8 |  |  |  |  |  |  |  | 
